Columns and labels:
human AKR7A2 [1] = target: T1, human AKR7A2 (Homo sapiens, UniProt O43488); assay: Biacore assays: binding of azole drugs and 2-CBA to immobilized AKR7A2; details: 25 °C; for kd: 1:1 binding model; for Kd: KD calculated by kd/ka
T1 construct: made in house; host or cells: E. coli BL21 (DE3) pLysS, pET-28a vector
Procedure: All experiments were performed on a Biacore 8k instrument (GE, Healthcare). According to the manufacturer’s handbook, about 1 mg/mL of freshly purified AKR7A2 protein was diluted with 10 mM sodium acetate buffer (pH 5.0) and was immobilized on a sensor chip CM5, via amine coupling, to a level of ~20,000 resonance units (RU). A reference surface was prepared in parallel with the addition of the buffer and was used for the subtraction of nonspecific binding. The analytes 2-CBA and azole drugs were diluted in a running buffer containing 2% DMSO. […] All samples were injected at a flow rate of 30 μL/min. The experimental sensorgrams were analyzed by Biacore 8k Evaluation Software Version 1.1.1.7442. The resulting curves were fitted with a 1:1 binding model, which gave the kinetic constants (ka, kd, and KD). All measurements were repeated in at least three independent experiments.

human AKR7A2 [2] = target: T1, human AKR7A2; assay: Steady-state kinetics of AKR7A2 catalyzing 2-CBA in the absence or presence of azole drugs; assay type: biochemical; details: for effect on catalytic efficiency (kcat/Km) of AKR7A2 catalyzing 2-CBA: compared to absence of drug; for kcat / increment of kcat/Km compared with the absence of the drug: substrate 2-CBA; for increment of kcat/Km compared with the absence of the drug: highest concentration of drug (50 μM; fluconazole 100 μM)
Procedure: (§1) The steady-state kinetic parameters of AKR7A2 catalyzing 2-CBA were measured on a UV-2550 spectrophotometer (SHIMADZU, Japan) in the absence or presence of azole drugs. All drugs were dissolved with DMSO. Fluconazole, voriconazole, and ketoconazole were all made up of 2, 5, and 10 mM of mother solution. […] The steady-state kinetic assays were performed, as before, with some modifications. […] The reactions were initiated by the addition of 2-CBA and were monitored for 4 min at 25 °C. […] The kinetic data were fitted to the Michaelis-Menten equation [56, 57] using GraphPad Prism 8.0 (GraphPad Software, San Diego, CA, USA). The kinetic parameters Km and kcat were generated by the fitting. The resulting data were expressed as the mean ± standard deviation (SD) based on at least three independent experiments. Statistical significance was analyzed by ANOVA, and the significance was defined as * p < 0.05, ** p < 0.01, *** p < 0.001, or **** p < 0.0001.

human AKR7A2 [3] = target: T1, human AKR7A2; assay: Steady-state kinetics of AKR7A2 with SSA as a substrate in the absence or presence of voriconazole; assay type: biochemical; details: for kcat: substrate SSA
Procedure: as §1, with “The steady-state kinetic parameters of AKR7A2 catalyzing 2-CBA were measured on a UV-2550 spectrophotometer (SHIMADZU, Japan) in the absence or presence of azole drugs.” left out, “The reactions were initiated by the addition of 2-CBA and were monitored for 4 min at 25 °C.” left out

[4] = parameters: method as in PMID 12942409; details: patients, after administration; cited from earlier work

T1 sequence (O43488 39-359): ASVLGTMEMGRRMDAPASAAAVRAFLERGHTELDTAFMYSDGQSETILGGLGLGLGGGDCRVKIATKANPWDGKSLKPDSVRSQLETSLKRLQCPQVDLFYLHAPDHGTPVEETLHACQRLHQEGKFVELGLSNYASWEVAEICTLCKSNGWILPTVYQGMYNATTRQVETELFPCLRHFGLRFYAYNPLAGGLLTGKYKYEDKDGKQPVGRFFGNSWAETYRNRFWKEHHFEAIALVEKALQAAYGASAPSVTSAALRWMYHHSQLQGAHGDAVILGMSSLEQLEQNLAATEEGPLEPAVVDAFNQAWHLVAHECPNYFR

| Structure (SMILES) | kd (human AKR7A2 [1]) | Kd (human AKR7A2 [1]) [µM] | effect on catalytic efficiency (kcat/Km) of AKR7A2 catalyzing 2-CBA (human AKR7A2 [2]) | kcat (human AKR7A2 [2]; drug concentration 5 μM) [s⁻¹] | kcat (human AKR7A2 [2]; drug concentration 20 μM) [s⁻¹] | kcat (human AKR7A2 [2]; drug concentration 50 μM) [s⁻¹] | kcat (human AKR7A2 [2]; drug concentration 100 μM) [s⁻¹] | increment of kcat/Km compared with the absence of the drug (human AKR7A2 [2]) [%] | effect on catalysis of AKR7A2 with SSA as a substrate (human AKR7A2 [3]; concentration range of 0–50 µM) | kcat (human AKR7A2 [3]; drug concentration 5 μM) [s⁻¹] | kcat (human AKR7A2 [3]; drug concentration 20 μM) [s⁻¹] | kcat (human AKR7A2 [3]; drug concentration 50 μM) [s⁻¹] | cerebrospinal fluid concentrations [4] [µg/mL] |
| --- | --- | --- | --- | --- | --- | --- | --- | --- | --- | --- | --- | --- | --- |
| Clc1ccc(COC(Cn2ccnc2)c2ccc(Cl)cc2Cl)cc1 (centres unmarked) [econazole] | 15.9 ± 0.72 (s^−1) × 10^2 | 565 ± 84 | did not significantly change | 1.194 ± 0.0285 | 1.213 ± 0.0258 | 1.262 ± 0.0635 | – | – | – | – | – | – | – |
| CCC(C)n1ncn(-c2ccc(N3CCN(c4ccc(OCC5COC(Cn6cncn6)(c6ccc(Cl)cc6Cl)O5)cc4)CC3)cc2)c1=O (centres unmarked) [itraconazole] | 0.0263 ± 0.0035 s⁻¹ | 0.81 ± 0.44 | enhanced significantly | 1.342 ± 0.0237 | 1.219 ± 0.0167 | 1.107 ± 0.023 | – | 35 | – | – | – | – | – |
| CC(=O)N1CCN(c2ccc(OCC3COC(Cn4ccnc4)(c4ccc(Cl)cc4Cl)O3)cc2)CC1 (centres unmarked) [ketoconazole] | 12.6 ± 1.91 (s^−1) × 10^2 | 1800 ± 438 | did not significantly change | – | 1.302 ± 0.0268 | 1.271 ± 0.0303 | 1.44 ± 0.0348 | – | – | – | – | – | – |

More lines, main results first:

| kd (human AKR7A2 [1]) | Kd (human AKR7A2 [1]) [µM] | effect on catalytic efficiency (kcat/Km) of AKR7A2 catalyzing 2-CBA (human AKR7A2 [2]) | kcat (human AKR7A2 [2]; drug concentration 5 μM) [s⁻¹] | kcat (human AKR7A2 [2]; drug concentration 20 μM) [s⁻¹] | kcat (human AKR7A2 [2]; drug concentration 50 μM) [s⁻¹] | kcat (human AKR7A2 [2]; drug concentration 100 μM) [s⁻¹] | increment of kcat/Km compared with the absence of the drug (human AKR7A2 [2]) [%] | effect on catalysis of AKR7A2 with SSA as a substrate (human AKR7A2 [3]; concentration range of 0–50 µM) | kcat (human AKR7A2 [3]; drug concentration 5 μM) [s⁻¹] | kcat (human AKR7A2 [3]; drug concentration 20 μM) [s⁻¹] | kcat (human AKR7A2 [3]; drug concentration 50 μM) [s⁻¹] | Structure (SMILES) | cerebrospinal fluid concentrations [4] [µg/mL] |
| --- | --- | --- | --- | --- | --- | --- | --- | --- | --- | --- | --- | --- | --- |
| 0.0229 ± 0.0202 s⁻¹ | 19.3 ± 14.9 | – | – | – | – | – | – | – | – | – | – | O=Cc1ccccc1C(=O)O [2-CBA, 2-carboxybenzaldehyde] | – |
| 0.0218 ± 0.0046 s⁻¹ | 8.11 ± 4.83 | enhanced significantly | – | 1.195 ± 0.0173 | 1.221 ± 0.0192 | 1.072 ± 0.0185 | 64 | – | – | – | – | OC(Cn1cncn1)(Cn1cncn1)c1ccc(F)cc1F [fluconazole] | – |
| 0.0536 ± 0.0017 s⁻¹ | 84.9 ± 7.21 | enhanced significantly | 1.205 ± 0.0228 | 1.196 ± 0.0235 | 1.236 ± 0.0292 | – | 67 | – | – | – | – | Clc1ccc(COC(Cn2ccnc2)c2ccc(Cl)cc2Cl)c(Cl)c1 (centres unmarked) [miconazole] | – |
| 0.0298 ± 0.0059 s⁻¹ | 1.35 ± 0.44 | enhanced significantly | 1.239 ± 0.0212 | 1.273 ± 0.029 | 1.029 ± 0.0295 | – | 74 | – | – | – | – | CC[C@@H]([C@H](C)O)n1ncn(-c2ccc(N3CCN(c4ccc(OC[C@@H]5CO[C@@](Cn6cncn6)(c6ccc(F)cc6F)C5)cc4)CC3)cc2)c1=O [posaconazole] | – |
| 0.0168 ± 0.0072 s⁻¹ | 2.98 ± 2.11 | did not significantly change | – | 1.126 ± 0.0163 | 1.237 ± 0.0168 | 1.258 ± 0.0248 | – | efficiently promote the catalysis | 1.297 ± 0.0377 | 1.306 ± 0.024 | 1.326 ± 0.0222 | C[C@@H](c1ncncc1F)[C@](O)(Cn1cncn1)c1ccc(F)cc1F [voriconazole] | 0.08 to 3.93 |
